In brackets after ≈: the same amount, converted by molar mass.
What was measured:
Mtb H37Rv = experiment: MIC determination by microplate AlamarBlue assay; conditions: for fold more potent against M.tb than counterparts 3 - 5 with no carbon spacer: 9 vs 3, 10 vs 4, 11 vs 5; for anti-TB activity in words: susceptible strain of Mtb, SAR discussion; for Mtb MIC H37Rv/DS: Table 2, H37Rv drug-sensitive
in vitro [1] = format: in vitro ADME; conditions: mouse, microsomes, Liver microsomes, % remaining after 1 hr (mouse)
Mtb KZN494/MDR = experiment: microbe, parasite or virus in culture; format: cell-based, Mycobacterium tuberculosis; conditions: relative to H37Rv MIC
CYP2C19 = CYP2C19 (Homo sapiens, UniProt P33261); experiment: CYP inhibition, CYP2C19; format: in vitro ADME
in vitro [2] = format: in vitro ADME; conditions: human, plasma
in vitro [3] = format: cell-based; conditions: African green monkey
Vero cells = experiment: in vitro; format: cell-based; conditions: IC50 (Vero)/MIC
CYP2D6 = CYP2D6 (Homo sapiens, UniProt P10635); experiment: CYP inhibition, CYP2D6; format: in vitro ADME
in vitro [4] = format: in vitro ADME
Mtb V4207/DS = experiment: microbe, parasite or virus in culture; format: cell-based; conditions: Mycobacterium tuberculosis, read-out: Mtb MIC V4207/DS
CYP2C9 = CYP2C9 (Homo sapiens, UniProt P11712); experiment: CYP inhibition, CYP2C9; format: in vitro ADME
CYP1A2 = target: T1, CYP1A2 (Homo sapiens, UniProt P05177); experiment: CYP inhibition, CYP1A2; format: in vitro ADME
T1 sequence (P05177 1-516): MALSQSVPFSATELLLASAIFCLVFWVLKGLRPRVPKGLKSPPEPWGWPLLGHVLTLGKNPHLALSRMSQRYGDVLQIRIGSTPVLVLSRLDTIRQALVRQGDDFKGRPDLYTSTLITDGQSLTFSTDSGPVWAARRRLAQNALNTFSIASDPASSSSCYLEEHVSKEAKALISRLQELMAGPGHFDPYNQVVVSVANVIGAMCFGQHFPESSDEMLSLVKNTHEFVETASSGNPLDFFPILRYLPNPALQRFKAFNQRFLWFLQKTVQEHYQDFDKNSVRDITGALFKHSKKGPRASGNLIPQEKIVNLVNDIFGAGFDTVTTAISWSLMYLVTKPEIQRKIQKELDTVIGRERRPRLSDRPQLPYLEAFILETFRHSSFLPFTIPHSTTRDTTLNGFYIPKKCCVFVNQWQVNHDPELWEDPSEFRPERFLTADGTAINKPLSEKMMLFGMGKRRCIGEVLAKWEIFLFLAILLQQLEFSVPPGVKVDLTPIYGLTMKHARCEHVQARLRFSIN

clinical isolates of Mtb = format: cell-based, Mycobacterium tuberculosis; conditions: for MIC range against MDR and XDR strains of TB: range over both compounds and strains; for fold drop in activity against the tested clinical isolates of Mtb: relative to H37Rv MIC
[5] = target: human Ether-à-go-go related gene (hERG) channel (Homo sapiens, UniProt Q12809); experiment: hERG channel inhibition, manual patch-clamp; format: cell-based
hERG = hERG (Homo sapiens, UniProt Q12809); experiment: hERG channel inhibition, manual patch-clamp; format: cell-based; conditions: human
in vitro [6] = format: in vitro ADME; conditions: mouse, plasma
CYP3A4 = CYP3A4 (Homo sapiens, UniProt P08684); experiment: CYP inhibition, CYP3A4; format: in vitro ADME; conditions: probe midazolam
in vitro [7] = format: in vitro ADME; conditions: human, microsomes, Liver microsomes, % remaining after 1 hr (human)

CYP2D6, sequence (P10635 whole entry): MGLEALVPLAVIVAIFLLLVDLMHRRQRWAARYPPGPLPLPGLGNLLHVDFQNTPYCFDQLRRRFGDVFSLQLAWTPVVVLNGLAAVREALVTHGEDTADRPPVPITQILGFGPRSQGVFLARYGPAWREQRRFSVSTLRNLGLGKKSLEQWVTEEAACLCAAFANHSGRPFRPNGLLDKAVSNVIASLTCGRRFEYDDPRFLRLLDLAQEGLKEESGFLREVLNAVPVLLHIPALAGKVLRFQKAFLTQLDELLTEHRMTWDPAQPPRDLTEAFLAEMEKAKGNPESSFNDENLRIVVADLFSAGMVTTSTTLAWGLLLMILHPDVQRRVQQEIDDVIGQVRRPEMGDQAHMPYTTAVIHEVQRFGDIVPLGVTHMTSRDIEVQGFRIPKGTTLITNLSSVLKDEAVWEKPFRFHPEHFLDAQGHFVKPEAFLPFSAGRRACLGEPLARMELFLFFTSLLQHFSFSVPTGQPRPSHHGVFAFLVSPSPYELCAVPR
CYP2C9, sequence (P11712 whole entry): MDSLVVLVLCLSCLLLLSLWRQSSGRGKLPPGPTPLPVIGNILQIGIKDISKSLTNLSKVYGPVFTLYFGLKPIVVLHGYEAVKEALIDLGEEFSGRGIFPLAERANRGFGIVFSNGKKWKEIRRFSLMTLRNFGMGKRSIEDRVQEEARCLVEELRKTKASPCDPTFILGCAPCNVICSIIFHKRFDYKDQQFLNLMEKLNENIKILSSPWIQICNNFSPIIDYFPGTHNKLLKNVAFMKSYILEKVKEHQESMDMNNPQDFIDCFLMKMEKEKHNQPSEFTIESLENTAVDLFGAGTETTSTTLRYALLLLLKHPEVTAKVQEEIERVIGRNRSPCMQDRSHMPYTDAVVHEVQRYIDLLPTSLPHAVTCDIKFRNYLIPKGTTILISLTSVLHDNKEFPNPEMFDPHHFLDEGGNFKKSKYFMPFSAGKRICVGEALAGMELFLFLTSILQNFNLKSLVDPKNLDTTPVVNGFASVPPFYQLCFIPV
hERG, sequence (Q12809 whole entry): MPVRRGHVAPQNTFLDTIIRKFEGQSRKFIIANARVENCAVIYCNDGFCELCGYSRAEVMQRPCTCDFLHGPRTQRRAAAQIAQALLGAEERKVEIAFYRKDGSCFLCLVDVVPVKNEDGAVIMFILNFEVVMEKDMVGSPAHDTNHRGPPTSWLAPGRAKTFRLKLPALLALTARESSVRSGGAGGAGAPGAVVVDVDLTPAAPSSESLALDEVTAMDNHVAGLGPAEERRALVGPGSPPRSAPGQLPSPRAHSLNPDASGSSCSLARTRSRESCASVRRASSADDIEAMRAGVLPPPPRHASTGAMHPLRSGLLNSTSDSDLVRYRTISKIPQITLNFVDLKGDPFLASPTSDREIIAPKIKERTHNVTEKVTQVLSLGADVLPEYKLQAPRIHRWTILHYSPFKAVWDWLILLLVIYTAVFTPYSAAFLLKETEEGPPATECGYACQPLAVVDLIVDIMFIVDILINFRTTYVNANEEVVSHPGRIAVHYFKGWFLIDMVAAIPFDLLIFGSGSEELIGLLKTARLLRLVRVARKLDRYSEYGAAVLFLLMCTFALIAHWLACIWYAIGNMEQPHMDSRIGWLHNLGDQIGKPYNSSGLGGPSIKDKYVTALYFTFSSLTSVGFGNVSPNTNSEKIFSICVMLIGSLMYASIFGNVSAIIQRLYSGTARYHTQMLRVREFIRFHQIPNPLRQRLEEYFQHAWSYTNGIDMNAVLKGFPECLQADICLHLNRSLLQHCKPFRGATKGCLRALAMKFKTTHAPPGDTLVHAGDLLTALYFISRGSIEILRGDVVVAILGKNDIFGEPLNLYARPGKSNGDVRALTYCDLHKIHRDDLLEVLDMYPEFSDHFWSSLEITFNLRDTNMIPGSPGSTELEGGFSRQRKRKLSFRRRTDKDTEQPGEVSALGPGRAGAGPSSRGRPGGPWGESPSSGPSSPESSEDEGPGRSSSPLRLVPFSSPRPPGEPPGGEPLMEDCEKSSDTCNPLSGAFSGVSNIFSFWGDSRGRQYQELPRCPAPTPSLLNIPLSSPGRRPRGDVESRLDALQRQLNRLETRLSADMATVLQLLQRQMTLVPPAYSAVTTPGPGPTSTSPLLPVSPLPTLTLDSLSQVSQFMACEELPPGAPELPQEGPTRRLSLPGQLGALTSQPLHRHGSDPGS
human Ether-à-go-go related gene (hERG) channel, sequence (Q12809 whole entry): as above
CYP3A4, sequence (P08684 whole entry): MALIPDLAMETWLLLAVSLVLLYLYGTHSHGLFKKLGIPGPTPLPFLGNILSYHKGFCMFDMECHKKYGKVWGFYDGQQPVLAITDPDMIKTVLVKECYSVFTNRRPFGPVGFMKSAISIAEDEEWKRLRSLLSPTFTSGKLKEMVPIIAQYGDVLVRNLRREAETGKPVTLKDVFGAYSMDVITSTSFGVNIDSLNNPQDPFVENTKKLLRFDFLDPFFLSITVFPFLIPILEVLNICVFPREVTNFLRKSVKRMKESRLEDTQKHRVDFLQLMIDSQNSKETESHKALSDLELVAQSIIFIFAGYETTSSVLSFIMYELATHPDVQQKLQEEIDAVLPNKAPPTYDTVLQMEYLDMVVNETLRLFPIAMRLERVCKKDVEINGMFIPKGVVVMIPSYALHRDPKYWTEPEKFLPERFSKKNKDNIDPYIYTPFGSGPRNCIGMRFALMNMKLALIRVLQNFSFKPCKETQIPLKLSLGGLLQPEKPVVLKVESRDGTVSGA
CYP2C19, sequence (P33261 whole entry): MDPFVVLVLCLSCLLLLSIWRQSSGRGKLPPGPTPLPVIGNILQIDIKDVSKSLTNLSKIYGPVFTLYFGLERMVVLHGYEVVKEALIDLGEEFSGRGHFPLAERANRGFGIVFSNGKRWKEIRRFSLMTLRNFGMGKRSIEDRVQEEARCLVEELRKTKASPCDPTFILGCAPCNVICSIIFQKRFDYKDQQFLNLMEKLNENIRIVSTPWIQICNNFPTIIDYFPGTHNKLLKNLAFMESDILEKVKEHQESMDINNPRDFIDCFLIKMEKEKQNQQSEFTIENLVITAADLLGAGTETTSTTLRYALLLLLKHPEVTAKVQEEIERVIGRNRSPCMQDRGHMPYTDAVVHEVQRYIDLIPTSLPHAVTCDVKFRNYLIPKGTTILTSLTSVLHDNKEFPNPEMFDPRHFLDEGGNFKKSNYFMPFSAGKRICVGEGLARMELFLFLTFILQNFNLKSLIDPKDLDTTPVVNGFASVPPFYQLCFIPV

In the case of `Cc1ccc2nc(C)c(C(=O)NCC3CCCCCC3)n2c1` [Compound 10, N-(cycloheptylmethyl)-2,6-dimethylimidazo[1,2-a]pyridine-3-carboxamide], the “fold more potent against M.tb than counterparts 3 - 5 with no carbon spacer” value (from here on “fold more potent … with no carbon spacer”) (Mtb H37Rv; ratio of MIC) is reported as 133 fold.
In the case of `O=C(NCCCC1CCCCC1)c1cn2ccc(Cl)cc2n1` [Compound 19, 7-chloro-N-(3-cyclohexylpropyl)imidazo[1,2-a]pyridine-2-carboxamide], the “anti-TB activity in words” value (Mtb H37Rv) is reported as “less active”.
For `Cc1nc2ccc(Cl)cn2c1C(=O)NCCCC1CCCCC1` [Compound 16, 6-chloro-N-(3-cyclohexylpropyl)-2-methylimidazo[1,2-a]pyridine-3-carboxamide], the remaining at 1 h, 1 μM (in vitro [1]) was about 0.15%, the “fold increase in activity against MDR Mtb strain KZN494” value (Mtb KZN494/MDR) was 2 fold and the “fold more active than isoniazid against H37Rv” value (Mtb H37Rv; ratio of MIC) was 1.5 - 3 fold. For the same molecule, the “Mtb MIC H37Rv/DS” value (Mtb H37Rv) was 0.19 µM, the “fold drop in activity relative to compound 15” value (Mtb H37Rv; ratio of MIC) was “approximately 2 fold” and the inhibition at 10 µM (CYP2C19) was 45.2%. For the same molecule, the fraction unbound (in vitro [2]) was 0.0011, the IC50 at 72 h (in vitro [3]) was at least 192 µM and the “SI, Selectivity index = IC50 (Vero)/MIC” value (Vero cells) was at least 1024. For the same molecule, the inhibition at 10 µM (CYP2D6) was 16.4%, the “% degraded after 2 hours incubation with human hepatocyte” value (in vitro [4]; 2 h, 1 μM) was “over 95%” and the remaining at 2 h, 1 μM (in vitro [4]; human, hepatocytes) was 0.19%. The MIC (Mtb V4207/DS) was 0.37 µM (≈ 0.124 µg/mL), the inhibition at 10 µM (CYP2C9) was 32.2% and the inhibition at 10 µM (CYP1A2) was 26.3%. The “MIC range against MDR and XDR strains of TB” value (clinical isolates of Mtb) was 0.05 to 1.5 µM, the “fold drop in activity against the tested clinical isolates of Mtb” value (clinical isolates of Mtb) was “up to 8 fold” and the IC50 [5] was over 10 µM. The inhibition at 10 µM (hERG) was 29.1%, the fraction unbound (in vitro [6]) was 0.0036 and the inhibition at 10 µM (CYP3A4) was 52.2%. For the same molecule, the remaining at 1 h, 1 μM (in vitro [7]) was about 1.5%.
In the case of `Cc1ccc2nc(C)c(C(=O)NCC34CC5CC(CC(C5)C3)C4)n2c1` [Compound 12, N-(adamantan-1-ylmethyl)-2,6-dimethylimidazo[1,2-a]pyridine-3-carboxamide], the “anti-TB activity in words” value (Mtb H37Rv) is reported as “poor anti-TB activity”.
In the case of `O=C(NCCCC1CCCCC1)c1c(-c2ccccc2)nc2cc(Cl)ccn12` [Compound 17, 7-chloro-N-(3-cyclohexylpropyl)-2-phenylimidazo[1,2-a]pyridine-3-carboxamide], the “anti-TB activity in words” value (Mtb H37Rv) is reported as “complete loss in activity”.
With `Cc1ccc2nc(C)c(C(=O)NCCCC3CCCCC3)n2c1` [Compound 15, N-(3-cyclohexylpropyl)-2,6-dimethylimidazo[1,2-a]pyridine-3-carboxamide] the “fold increase in activity against MDR Mtb strain KZN494” value (Mtb KZN494/MDR) was 2 fold, the “fold more active than isoniazid against H37Rv” value (Mtb H37Rv; ratio of MIC) was 1.5 - 3 fold and the “Mtb MIC H37Rv/DS” value (Mtb H37Rv) was 0.10 µM. For the same molecule, the “fold more active than compounds 9 and 13” value (Mtb H37Rv; ratio of MIC) was 4 fold, the IC50 at 72 h (in vitro [3]) was 102 µM and the “SI, Selectivity index = IC50 (Vero)/MIC” value (Vero cells) was 1024. The MIC (Mtb V4207/DS) was 0.1 µM (≈ 0.0313 µg/mL), the “MIC range against MDR and XDR strains of TB” value (clinical isolates of Mtb) was 0.05 to 1.5 µM and the “fold drop in activity against the tested clinical isolates of Mtb” value (clinical isolates of Mtb) was “up to 2 fold”.
In the case of `O=C(NC1CCCCCCC1)c1cn2ccc(Cl)cc2n1` [Compound 18, 7-chloro-N-cyclooctylimidazo[1,2-a]pyridine-2-carboxamide], the “anti-TB activity in words” value (Mtb H37Rv) is reported as “less active”.
For `Cc1ccc2nc(C)c(C(=O)NCC3CCCCCCC3)n2c1` [Compound 11, N-(cyclooctylmethyl)-2,6-dimethylimidazo[1,2-a]pyridine-3-carboxamide], the “fold more potent … with no carbon spacer” value (Mtb H37Rv; ratio of MIC) was 133 fold.
In the case of `Cc1ccc2nc(C)c(C(=O)NCC3CCCCC3)n2c1` [Compound 9, N-(cyclohexylmethyl)-2,6-dimethylimidazo[1,2-a]pyridine-3-carboxamide], the “fold more potent … with no carbon spacer” value (Mtb H37Rv; ratio of MIC) is reported as 267 fold.

From publication PMC8720286 (Chemical biology & drug design, 2020)
